Experimental data reported in patent US6552048B2, “Sulfonylcarboxamide derivatives, process for their preparation and their use as pharmaceuticals” (Aventis Pharma Deutschland GmbH, priority 1999, dated 2003).

How the values were obtained:
[1] = tested on: human LDL receptor gene promoter region coupled to firefly Luciferase reporter gene in Hep-G2 cell line; assay: In vitro determination of LDL receptor induction using the Luciferase assay; assay type: cell-based; conditions: for LDL-receptor induction in %, compared with control: comparative test
Protocol: 1) In vitro Determination of LDL Receptor Induction Using the Luciferase Assay
LDL-receptor induction is determined using the Luciferase assay as follows: for this purpose, a regulatory DNA fragment (4 kb) of the human LDL receptor gene which contains the complete promoter region is coupled to the firefly Luciferase reporter gene and stably transfixed into a Hep-G2 cell line. Cells from this line were seeded out on collagen-coated 96-well plates in MEM (minimum essential medium). After 24 hours in culture, the test substances, dissolved in DMSO, were added in final concentrations of 10 nM to 10 μM (final DMSO concentration=2%). The substances were incubated for 12-18 hours overnight (4 wells/conc. in each case), then D-luciferin was added as substrate for the Luciferase, and the luminescence was measured. The measured luminescence as a percentage of the control (control=100%) incubated only with DMSO indicates the extent of the relative LDL-receptor induction (Table 2).
Further details of the method are described in: Current Protocols in Molecular Biology, F. M. Ausubel, R. Brent, R. E. Kingston, D. D. Moore, J. G. Seidman, J. A. Smith and Kevin Struhl editors, J. Wiley and Sons Inc., U.S.A.
A comparative test was carried out by the Luciferase assay described above using 2,4-dichloro-5-(3,5-dimethylpiperidinosulfamoyl)benzoic acid and the compound from Example 42. [drawing 8]

hyperlipidemic hamsters = assay: In vivo determination of reduction in LDL cholesterol in hyperlipemic hamsters; parameters: species or system male Syrian hamsters; conditions: vs placebo-treated control
Source text: 2) In vivo Determination of Reduction in LDL Cholesterol in Hamsters.
Cholesterol-lowering effect of LDL-receptor inducers in hyperlipemic hamsters
In this animal experiment, the effect of LDL-receptor inducers after bolus administration to hamsters on a lipid-rich diet was investigated.
The test animals used were male Syrian hamsters (Charles River) with an average body weight of 100-120 g at the start of adaptation. The animals were divided into groups (n=6) on the basis of body weight. Severe hyperlipidemia was induced by feeding with a diet supplemented with 15% butter and 3% cholesterol. The treatment started after preliminary feeding for 2 weeks. The test substances were administered orally by gavage once a day over a period of 10 days. The plasma lipid level was analyzed after 10 days.

[2] = test compound 1.5 μM, control (DMSO only)=100%, Hep-G2 reporter line
[3] = test compound 0.15 μM, control (DMSO only)=100%, Hep-G2 reporter line
[4] = test compound 0.05 μM, control (DMSO only)=100%, Hep-G2 reporter line
[5] = 20 mg/kg p.o. once a day for 10 days
[6] = 10 mg/kg p.o. once a day for 10 days
[7] = 40 mg/kg p.o. once a day for 10 days
[8] = test compound 0.15 μM, control (DMSO only)=100%, Hep-G2 reporter line, 0.15 µM

CN1CCN(c2cc(NCCCc3ccccc3)c(S(=O)(=O)N(C)c3ccccc3)cc2C(=O)N(C)c2ccccc2)CC1 [Example 2]
LDL-receptor induction (% of control) [1, 2]: 225% (1.5 μM)

CN1CCN(c2cc(NCCc3ccccc3)c(S(=O)(=O)N(C)c3ccccc3)cc2C(=O)N(C)c2ccccc2)CC1 [Example 3]
LDL-receptor induction (% of control) [1, 2]: 276% (1.5 μM)

CN1CCN(c2cc(NC3CCN(Cc4ccccc4)CC3)c(S(=O)(=O)N(C)c3ccccc3)cc2C(=O)N(C)c2ccccc2)CC1 [Example 4]
LDL-receptor induction (% of control) [1, 3]: 190% (0.15 μM)

CN1CCN(c2cc(N3CCC(Cc4ccccc4)CC3)c(S(=O)(=O)N(C)c3ccccc3)cc2C(=O)N(C)c2ccccc2)CC1 [Example 9]
LDL-receptor induction (% of control) [1, 3]: 170% (0.15 μM)

CN1CCN(c2cc(NC3CCN(Cc4ccccc4)CC3)c(S(C)(=O)=O)cc2C(=O)N(C)c2ccccc2)CC1 [Example 14]
LDL-receptor induction (% of control) [1, 2]: 176% (1.5 μM)

CN(C(=O)c1cc(S(=O)(=O)N(C)c2ccccc2)c(N2CCC(Cc3ccccc3)CC2)cc1NCCN1CCCC1)c1ccccc1 [Example 22]
LDL-receptor induction (% of control) [1, 3]: 224% (0.15 μM)

CN(C(=O)c1cc(S(=O)(=O)N(C)c2ccccc2)c(N2CCC(c3ccccc3)CC2)cc1NCCN1CCCC1)c1ccccc1 [Example 25]
LDL-receptor induction (% of control) [1, 4]: 152%
LDL-receptor induction (% of control) [1, 2]: 346%

CN1CCN(c2cc(N3CCC(Cc4ccccc4)CC3)c(S(C)(=O)=O)cc2C(=O)N2CCCCC2)CC1 [Example 30]
LDL-receptor induction (% of control) [1, 3]: 199%
LDL-receptor induction (% of control) [1, 2]: 255%

COCCCNC(=O)c1cc(S(C)(=O)=O)c(N2CCC(c3ccccc3)CC2)cc1N1CCN(C)CC1 [Example 34]
LDL-receptor induction (% of control) [1, 3]: 210%
LDL-receptor induction (% of control) ([1]; test compound 4 μM, control (DMSO only)=100%, Hep-G2 reporter line): 291%

CN1CCN(c2cc(N3CCC(c4ccccc4)CC3)c(S(=O)(=O)N3CCCCC3)cc2C(=O)N2CCCCC2)CC1 [Example 37]
Relative change in plasma LDL cholesterol (hyperlipidemic hamsters; [5]): −31%
Relative change in plasma total cholesterol (hyperlipidemic hamsters; [5]): −21%
Relative change in plasma triglycerides (hyperlipidemic hamsters; [5]): −46%
LDL-receptor induction (% of control) [1, 3]: 204%
LDL-receptor induction (% of control) [1, 2]: 227%

CCN(CC)C(=O)c1cc(S(=O)(=O)Cc2ccccc2)c(N2CCC(c3ccccc3)CC2)cc1N(CC)CCN(C)C [Example 42, 2-[(2-Dimethylaminoethyl)ethylamino]-N,N-diethyl-5-phenylmethane-sulfonyl-4-(4-phenylpiperidin-1-yl)benzamide]
activity at 0.05 µM ([1]; Homo sapiens, HepG2, test compound 0.05 μM, control (DMSO only)=100%, Hep-G2 reporter line): 149%
LDL-receptor induction in %, compared with control ([1]; 0.05 μM): 204%
LDL-receptor induction in %, compared with control ([1]; 0.15 μM): 219%
LDL-receptor induction in %, compared with control ([1]; 1.5 μM): 250%
LDL-receptor induction in %, compared with control ([1]; 4 μM): 278%

CCCCCNC(=O)c1cc(S(C)(=O)=O)c(N2CCC(Cc3ccccc3)CC2)cc1NCCN1CCCC1 [Example 53]
Relative change in plasma LDL cholesterol (hyperlipidemic hamsters; [6]): −52%
Relative change in plasma total cholesterol (hyperlipidemic hamsters; [6]): −7%
Relative change in plasma triglycerides (hyperlipidemic hamsters; [6]): +21%
Relative change in plasma LDL cholesterol (hyperlipidemic hamsters; [5]): −57%
Relative change in plasma total cholesterol (hyperlipidemic hamsters; [5]): −16%
Relative change in plasma triglycerides (hyperlipidemic hamsters; [5]): −11%
Relative change in plasma LDL cholesterol (hyperlipidemic hamsters; [7]): −58%
Relative change in plasma total cholesterol (hyperlipidemic hamsters; [7]): −17%
Relative change in plasma triglycerides (hyperlipidemic hamsters; [7]): −23%
LDL-receptor induction (% of control) [1, 4]: 197%
LDL-receptor induction (% of control) [1, 3]: 221%

CCCCCNC(=O)c1cc(S(C)(=O)=O)c(N2CCC(c3ccccc3)CC2)cc1NCCN1CCCC1 [Example 54]
LDL-receptor induction (% of control) [1, 8]: 223% (0.15 μM)

COCCCNC(=O)c1cc(S(C)(=O)=O)c(N2CCC(Cc3ccccc3)CC2)cc1NCCN1CCCC1 [Example 57]
LDL-receptor induction (% of control) [1, 3]: 222% (0.15 μM)

COCCCNC(=O)c1cc(S(C)(=O)=O)c(N2CCC(Cc3ccccc3)CC2)cc1N(C)CCN(C)C [Example 62]
LDL-receptor induction (% of control) [1, 4]: 205% (0.05 μM)

CN(C)CCN(C)c1cc(N2CCC(Cc3ccccc3)CC2)c(S(C)(=O)=O)cc1C(=O)N1CCCCC1 [Example 67]
LDL-receptor induction (% of control) [1, 3]: 203% (0.15 μM)

CCCCCNC(=O)c1cc(S(=O)(=O)Cc2ccccc2)c(N2CCC(c3ccc(F)cc3)CC2)cc1N(CC)CCN(C)C [Example 76]
LDL-receptor induction (% of control) [1, 3]: 244% (0.15 μM)

CCCCCNC(=O)c1cc(S(=O)(=O)Cc2ccccc2)c(N2CCC(c3ccc(C)cc3)CC2)cc1N(CC)CCN(C)C [Example 78]
LDL-receptor induction (% of control) [1, 3]: 200% (0.15 μM)

CCN(CC)C(=O)c1cc(S(=O)(=O)Cc2ccc(F)cc2F)c(N2CCC(c3ccccc3)CC2)cc1N(CC)CCN(C)C [Example 82]
LDL-receptor induction (% of control) [1, 3]: 227% (0.15 μM)

CCN(CC)C(=O)c1cc(S(=O)(=O)Cc2ccc(C)cc2)c(N2CCC(c3ccccc3)CC2)cc1NCCN1CCCC1 [Example 83]
LDL-receptor induction (% of control) [1, 3]: 212% (0.15 μM)

CCN(CC)C(=O)c1cc(S(=O)(=O)Cc2cccc(OC)c2)c(N2CCC(c3ccccc3)CC2)cc1NCCN1CCCC1 [Example 84]
LDL-receptor induction (% of control) [1, 4]: 240% (0.05 μM)

CCN(CC)C(=O)c1cc(S(=O)(=O)Cc2cccc(OC(F)(F)F)c2)c(N2CCC(c3ccccc3)CC2)cc1NCCN1CCCC1 [Example 91]
LDL-receptor induction (% of control) [1, 4]: 231% (0.05 μM)

CCN(CC)C(=O)c1cc(S(=O)(=O)Cc2cc(OC)cc(OC)c2)c(N2CCC(c3ccccc3)CC2)cc1N(CC)CCN(C)C [Example 96]
LDL-receptor induction (% of control) [1, 4]: 196% (0.05 μM)

CCN(CCN(C)C)c1cc(N2CCC(c3ccccc3)CC2)c(S(=O)(=O)Cc2ccccc2)cc1C(=O)NCCCCCO [Example 107]
LDL-receptor induction (% of control) [1, 4]: 288% (0.05 μM)

CCN(CC)C(=O)c1cc(S(=O)(=O)Cc2ccc(C(F)(F)F)cc2)c(N2CCC(c3ccccc3)CC2)cc1N(CC)CCN(C)C [Example 113]
LDL-receptor induction (% of control) [1, 4]: 217% (0.05 μM)

CCN(CC)C(=O)c1cc(S(=O)(=O)Cc2ccc(C#N)cc2)c(N2CCC(c3ccccc3)CC2)cc1N(CC)CCN(C)C [Example 116]
LDL-receptor induction (% of control) [1, 4]: 235% (0.05 μM)

CCCCCNC(=O)c1cc(S(C)(=O)=O)c(N2CCC(c3ccccc3)CC2)cc1NCCN1CCCC1.CS(=O)(=O)O [Example 141, 2-[NH-Ethyl-N-pyyrolidinyl]-NH-pentyl-5-methylsulfonyl-4-(4-phenylpiperidin-1-yl)benzamide]
LDL-receptor induction (% of control) [1, 3]: 280% (0.15 μM)

CCCCCNC(=O)c1cc(S(C)(=O)=O)c(N2CCC(c3ccccc3)CC2)cc1NCCN1CCCC1.Cc1ccc(S(=O)(=O)O)cc1 [Example 142, 2-[NH-Ethyl-N-pyrrolidinyl]-NH-pentyl-5-methylsulfonyl-4-(4-phenylpiperidin-1-yl)benzamide]
LDL-receptor induction (% of control) [1, 3]: 281% (0.15 μM)

CCCCCNC(=O)c1cc(S(C)(=O)=O)c(N2CCC(c3ccccc3)CC2)cc1NCCN1CCCC1 [Example 143, 2-[NH-Ethyl-N-pyrrolidinyl]-NH-pentyl-5-methylsulfonyl-4-(4-phenylpiperidin-1-yl)benzamide]
LDL-receptor induction (% of control) [1, 8]: 308% (0.15 μM)

CC1CC(C)CN(S(=O)(=O)c2cc(C(=O)O)c(Cl)cc2Cl)C1 (stereo not drawn) [reference compound]
LDL-receptor induction in %, compared with control ([1]; 0.05 μM): 94%
LDL-receptor induction in %, compared with control ([1]; 0.15 μM): 90%
LDL-receptor induction in %, compared with control ([1]; 1.5 μM): 90%
LDL-receptor induction in %, compared with control ([1]; 4 μM): 100%
